Results as given in US7125897B1, “Combined therapies for atherosclerosis treatment” (Vasogen Ireland Limited, priority 1999, dated 2006).

Columns and labels:
Assay type in all cases: in vivo, human
[1] = Ankle/brachial artery pressure ratio (ABPI) in patient with intermittent claudication; conditions: left leg; for ankle/brachial artery pressure ratio (ABPI): margin of error 0.1
Description: (§1) The stressed blood treatment used in the study involves the collection of 10 ml of a patient's venous blood into 2-ml of sodium citrate 3.13% as anticoagulant. The blood sample is transferred to a sterile, disposable low-density polyethylene vessel (model #V7002) for ex vivo treatment and is then exposed to the following three stimuli: • 1) An elevated temperature of 42.5° C.±1.0° C. at steady state controlled and monitored with a thermocouple; • 2) a gas mixture of medical oxygen containing 14.5±1.0 ug/ml of ozone, at a flow rate of 240±24 ml/min for 3 minutes; • 3) Ultra-violet light at a wavelength of 253.7 nm, and a total energy of 2.0 joules/cm^2.
(§2) The ex vivo treatment of the patient's blood sample is performed within a Blood Treatment Unit (model #V7001), generally described in U.S. Pat. No. 4,968,483 Mueller. The Unit regulates and monitors these physicochemical agents. The temperature of the blood is raised to 42.5° C., a process that takes up to 8 minutes depending upon the starting temperature of the blood sample. Before this temperature is reached the UV lights turn on, so that they reach maximum output by the time that the gas flow is initiated, which occurs when the temperature of the blood reaches 42.5° C. The total time of exposure to UV light is about 9 minutes. The gas mixture is bubbled through the blood sample at a flow rate of 240±24 ml/min for a period of 3 minutes while the temperature of the blood is maintained and UV irradiation continues. At the end of the treatment with the three stimuli (stressors), the blood is allowed to settle for 7 minutes. The device then signals that the treatment has been completed successfully. The entire process takes about 20 minutes.
A person with intermittent claudication (a cramping pain caused by arterial obstruction and indicative of the presence of a relatively advanced stage of atherosclerosis) in their left leg, was administered fluvastatin 20 mg. daily for hypercholesterolemia. Their initial ankle/brachial artery pressure ratio (ABPI) in the left leg was 0.60, normal values being greater than 0.9. […]

[2] = Claudication distance in patient with peripheral arterial occlusive disease; conditions: regular daily lovastatin plus 10 i.m. treatments of 10 ml autologous stressed blood over 14 weeks
Description: (§3) In a separate investigation, a patient suffering from peripheral arterial occlusive disease (a consequence of atherosclerosis) and receiving a regular, normal daily dose of lovastatin received 10 treatments of autologous stressed blood prepared as described above (10 ml aliquots, administered intramuscularly) over a 14-week period. As a result, their posterior tibial/brachial pressure index increased from 0.69 to 0.85, a very significant change.

[3] = Posterior tibial/brachial and dorsalis/brachial pressure index in patient with peripheral arterial occlusive disease
Description: as §1, §2, §3

[4] = regular daily lovastatin plus 10 i.m. treatments of 10 ml autologous stressed blood over 14 weeks
[5] = regular daily lovastatin, before stressed blood treatments

Row | SMILES | ankle/brachial artery pressure ratio (ABPI) ([1]; fluvastatin 20 mg daily plus 9 i.m. treatments with 10 ml stressed autologous blood over 3 weeks) | ankle/brachial artery pressure ratio (ABPI) ([1]; fluvastatin 20 mg daily plus stressed blood, 2 months after the end of treatment schedule) | initial ankle/brachial artery pressure ratio (ABPI) ([1]; fluvastatin 20 mg daily, before stressed blood treatments, normal values greater than 0.9) | claudication distance (walking distance before experiencing cramping pain in the legs) [2] | dorsalis (foot artery)/brachial pressure index [3, 4] | posterior tibial/brachial pressure index [3, 4] | dorsalis (foot artery)/brachial pressure index [3, 5] | posterior tibial/brachial pressure index [3, 5]
1 | CC(C)n1c(/C=C/C(O)CC(O)CC(=O)O)c(-c2ccc(F)cc2)c2ccccc21 (centres unmarked) [fluvastatin] | 0.66 | 0.75 | 0.60 | – | – | – | – | –
2 | CC[C@H](C)C(=O)O[C@H]1C[C@@H](C)C=C2C=C[C@H](C)[C@H](CC[C@@H]3C[C@@H](O)CC(=O)O3)[C@H]21 [lovastatin] | – | – | – | improved | 0.85 | 0.85 | 0.77 | 0.69
